The source of these data is US20020058795A1, “HYDROPHOBIC GLYCOSYLAMINE DERIVATIVES, COMPOSITIONS, AND METHODS FOR USE” (priority 1997, published 2002).

Molecules are shown by their SMILES.

Data set [1] relates to established cell lines and primary neuronal cultures. The conditions noted are these: cited from earlier work.
Data set [2] deals with cells. Kind of data set: Cell toxicity by total cellular protein synthesis (Bio-Rad Protein Assay) or cell proliferation (XTT). The class given is cell-based. The text has this: Compositions comprising HGDs of the invention, plasmid DNA, and a co-lipid such as DOPE or cholesterol were not appreciably toxic to cells. Toxicity measurements were based upon total cellular protein synthesis (Bio-Rad Protein Assay) or cell proliferation (Cell-Proliferation Kit-XTT, Boehringer Mannheim).
On the technique in general: Tetrazolium assays rely on reduction of a dye to a coloured formazan, in cell work by metabolically active cells.

The test system of data set [3] is tumors. Briefly: In vivo anti-tumor efficacy, intratumoral IL-2 plasmid compositions. Details: species or system mice. The conditions noted are these: for growth of tumors in mice: compositions with IL-2 plasmid DNA and DOPE, given directly into the tumor; for size of tumors, average: with DNA and DOPE; for size of tumors, average / reduction of growth rates of tumors: 1:2 -/+ charge ratio; for reduction of growth rates of tumors: with IL-2 plasmid DNA and DOPE. The text has this:
Compositions comprising HGDs of the invention, plasmid DNA comprising an IL-2 gene, and DOPE efficaciously retarded the growth of tumors in mice. These model-tumor studies involved implanting a tumor into mice, administering a composition of the invention directly into the tumor, and monitoring the growth of tumors in the mice. A protocol for such a procedure is taught in U.S. application Ser. No. 60/039,709, Raiston et al., “IL-2 Gene Expression and Delivery Systems and Uses,” filed Feb. 10, 1997, incorportated herein by reference in its entirety including any figures, tables, and drawings.

Data set [4] relates to cells. Kind of data set: Transfection efficiency: IL-2 expressed by cells given HGD/IL-2 plasmid compositions. The class given is cell-based. Particulars: for IL-2 expression by cells: 0.2 μg IL-2 plasmid, cholesterol or DOPE co-lipid, 48 hours. As to the method:
HGDs of the invention formed DNA/HGD complexes that efficiently delivered DNA plasmids to cells. The transfection efficiency was measured after compositions comprising HGDs of the invention, 0.2 μg of DNA plasmids comprising a gene encoding IL-2, and either cholesterol or DOPE as a co-lipid were incubated with cells for 48 hours. The amount of IL-2 expressed by cells administered the compositions was quantified using by an assay disclosed in U.S. application Ser. No. 60/039,709, Raiston et al., “IL-2 Gene Expression and Delivery Systems and Uses,” filed Feb. 10, 1997, incorportated herein by reference in its entirety including any figures, tables, and drawings.

Data set [5] concerns SCCVII tumors. Kind of data set: CAT reporter gene expression after injection of lipid/DNA complexes into tumors. The class given is in vivo. The conditions noted are these: complex with CAT DNA plasmid injected into SCCVII tumors; 10% lactose. As to the method:
A variety of HGD/DNA complexes were injected into SCCVII tumors. […] Other lipophilic molecules included DOTMA complexed with cholesterol, DOTIM complexed with DOPE and cholesterol, MMCE complexed with DOPE and cholesterol and DiP-PE, EPMC complexed with DOPE and cholesterol. All complexes comprised 10% lactose.

In the case of `CCCCCCCCCCCCCCCCCCN(CCCCCCCCCCCCCCCCCC)C(=O)CNC(=O)C(CCCNCCCN)NCCCN` (stereo not drawn) [DOGS], the “transfection efficiency relative to calcium phosphate” value in data set [1] is recorded as “more efficiently than calcium phosphate by at least two orders of magnitude”.
On to `CCCCCCCCCCCCCCCC(=O)OCC(COP(=O)(O)OCCNC(=O)C(CCCNCCCN)NCCCN)OC(=O)CCCCCCCCCCCCCCC` (stereo not drawn) [DPPES], for which, in data set [1], the “transfection efficiency relative to calcium phosphate” value was “more efficiently than calcium phosphate by at least two orders of magnitude”.
With `CCCCCCCC/C=C\CCCCCCCCO[C@@H]1OC(CO)[C@@H](O)C(O)C1N` (stereo partly drawn) [MOG, 1-mono-oleyl-glucosamine], the “expression and recovery of total protein, of normal protein levels” value in data set [2] (MOG composition contains DOPE, compared with LipofectAMINE composition) is “more than 75%”. For the same compound, the “health of cells compared with LipofectAMINE liposome compositions” value in data set [2] was “healthier”. Further, the “growth of tumors in mice” value in data set [3] was “significantly reduced the growth of tumors”. Also, the “size of tumors, average” value in data set [3] (nine days, untreated 600) was “less than 400 cubic millimeters”. The “reduction of growth rates of tumors” value in data set [3] (after nine days) is reported as “more than 30%”. In data set [4] (1:3 charge ratio), the “IL-2 expression compared with DOTMA liposomes” value was “as large as the amount of IL-2 expressed by cells administered liposomes comprising an efficient delivery lipid, DOTMA”. The results for the “IL-2 expression by cells” value in data set [4] (-/+ charge ratio 1:0.5) and in data set [4] (-/+ charge ratio 1:3) were “not significantly expressed” and “significantly expressed”, respectively. For the same compound, in data set [5], the “expression of the CAT reporter gene” value is “highest expression of the CAT reporter gene of any of the lipophilic molecule/DNA complexes tested”.
In the case of `CCCCCCCCCCCCCCCCO[C@@H]1OC(CO)[C@@H](O)C(O)C1N` (stereo partly drawn) [MPG, 1-mono-palmityl-glucosamine], the “health of cells compared with LipofectAMINE liposome compositions” value in data set [2] is listed as “healthier”. Moreover, the “growth of tumors in mice” value in data set [3] was “significantly reduced the growth of tumors”. Besides, the “size of tumors, average” value in data set [3] (thirteen days, untreated approximately 1600) is reported as “less than 1200 cubic millimeters”. Further, the “reduction of growth rates of tumors” value in data set [3] (after thirteen days) is on record as “more than 25%”.
